The record followed here is patent publication US10179782B2, “Substituted sulfonamide compounds” (Genentech, Inc., priority 2016, dated 2019).

Read-outs that look alike come from different tables or passages of the source.

This assay deals with T1, human TRPA1 (Homo sapiens, UniProt O75762).
T1 construct: expressed in transfected cells; host or cells: CHO cells
The assay is described as follows: TRPA1 FLIPR Tetra calcium influx assay in CHO cells (block of cinnamaldehyde-induced calcium influx). The class given is cell-based. To be noted: CHO cells expressing TRPA1, agonist cinnamaldehyde 75 uM, read-out: hTRPA1 CHO Ca2+ AUC EVO (IC50). Summed up: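 CHO cells expressing TRPA1 were loaded with calcium dye in HBSS/20 mM HEPES, pH 7.4, 0.02% BSA, then given compound for 20 min at room temperature before ~EC80 cinnamaldehyde (75 µM human, 45 µM rat). Block of calcium influx was read on FLIPR Tetra; IC50 fitted with Hill coefficient fixed at 1.5.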

[1] abbreviates: Table 2, 20 min compound incubation, Hill coefficient fixed to 1.5.

What is called IC50 is the concentration that inhibits the measured activity by half.

T1 sequence (O75762 whole entry): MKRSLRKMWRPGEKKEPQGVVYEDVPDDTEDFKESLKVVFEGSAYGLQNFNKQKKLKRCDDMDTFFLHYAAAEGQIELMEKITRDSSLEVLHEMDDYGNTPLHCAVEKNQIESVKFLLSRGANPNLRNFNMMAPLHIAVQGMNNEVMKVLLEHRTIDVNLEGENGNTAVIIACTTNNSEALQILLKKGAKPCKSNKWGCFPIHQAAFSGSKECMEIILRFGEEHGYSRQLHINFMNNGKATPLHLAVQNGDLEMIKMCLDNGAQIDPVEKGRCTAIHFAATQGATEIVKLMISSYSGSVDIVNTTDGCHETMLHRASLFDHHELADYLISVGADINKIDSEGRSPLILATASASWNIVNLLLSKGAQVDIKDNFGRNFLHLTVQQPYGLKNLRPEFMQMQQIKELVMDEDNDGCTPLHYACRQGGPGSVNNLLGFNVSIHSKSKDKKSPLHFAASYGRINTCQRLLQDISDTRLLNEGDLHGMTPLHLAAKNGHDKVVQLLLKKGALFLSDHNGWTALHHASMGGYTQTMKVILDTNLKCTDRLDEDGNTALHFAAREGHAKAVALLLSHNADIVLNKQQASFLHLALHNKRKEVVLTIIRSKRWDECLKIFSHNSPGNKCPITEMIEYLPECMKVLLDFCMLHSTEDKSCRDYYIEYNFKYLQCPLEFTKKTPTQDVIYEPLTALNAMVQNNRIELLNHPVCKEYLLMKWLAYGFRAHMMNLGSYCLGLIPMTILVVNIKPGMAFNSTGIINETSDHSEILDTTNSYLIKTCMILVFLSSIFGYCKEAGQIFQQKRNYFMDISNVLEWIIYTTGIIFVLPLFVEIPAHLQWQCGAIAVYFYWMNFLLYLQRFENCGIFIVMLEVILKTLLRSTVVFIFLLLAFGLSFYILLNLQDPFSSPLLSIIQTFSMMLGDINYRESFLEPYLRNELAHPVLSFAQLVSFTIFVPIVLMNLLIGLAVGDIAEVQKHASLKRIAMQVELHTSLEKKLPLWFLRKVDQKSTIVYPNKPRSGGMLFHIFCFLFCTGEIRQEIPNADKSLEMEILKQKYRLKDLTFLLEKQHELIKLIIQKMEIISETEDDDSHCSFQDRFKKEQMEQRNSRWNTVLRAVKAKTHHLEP

With `C[C@H]1[C@H](F)C[C@@H](C(=O)NCc2cc(-c3cnc(C(F)(F)F)nc3)c(F)cc2C#N)N1S(=O)(=O)c1ccc(F)cc1` [Example 30, (2S,4R,5S)-N-(2-cyano-4-fluoro-5-(2-(trifluoromethyl)pyrimidin-5-yl)benzyl)-4-fluoro-1-(4-fluorophenylsulfonyl)-5-methylpyrrolidine-2-carboxamide], under setting [1], the IC50 amounted to 8.65 nM. Still for that read-out and setting: then `O=C(NCc1cc(-c2cnc(C(F)(F)F)nc2)ncc1F)[C@@H]1[C@@H]2[C@H](CN1S(=O)(=O)c1ccc(F)cc1)C2(F)F` [Example 71, (1S,2S,5R)-6,6-difluoro-N-((5-fluoro-2-(2-(trifluoromethyl)pyrimidin-5-yl)pyridin-4-yl)methyl)-3-((4-fluorophenyl)sulfonyl)-3-azabicyclo[3.1.0]hexane-2-carboxamide], with 46.2 nM; and `COC[C@H]1CC[C@@H](C(=O)NCc2cc(-c3cnc(C(F)(F)F)nc3)ncc2F)N1S(=O)(=O)c1ccc(F)cc1` [Example 80, (2S,5R)-N-((5-fluoro-2-(2-(trifluoromethyl)pyrimidin-5-yl)pyridin-4-yl)methyl)-1-((4-fluorophenyl)sulfonyl)-5-(methoxymethyl)pyrrolidine-2-carboxamide], with 98.2 nM; and `C[C@H]1[C@H](F)C[C@@H](C(=O)NCc2cn(-c3cnc(C(F)(F)F)nc3)nc2C(F)(F)F)N1S(=O)(=O)c1ccc(F)cc1` [Example 46, (2S,4R,5S)-4-fluoro-1-(4-fluorophenylsulfonyl)-5-methyl-N-((3-(trifluoromethyl)-1-(2-(trifluoromethyl)pyrimidin-5-yl)-1H-pyrazol-4-yl)methyl)pyrrolidine-2-carboxamide], with 26.2 nM. On the same count and under the same terms, then `C[C@H]1[C@H](F)C[C@@H](C(=O)NCc2cc(-c3cnc(C(F)(F)F)nc3)nc(OCC(F)(F)F)n2)N1S(=O)(=O)c1ccc(F)cc1` [Example 124, (2S,4R,5S)-4-fluoro-1-(4-fluorophenyl)sulfonyl-5-methyl-N-[[2-(2,2,2-trifluoroethoxy)-6-[2-(trifluoromethyl)pyrimidin-5-yl]pyrimidin-4-yl]methyl]pyrrolidine-2-carboxamide], with 2.3 nM; and `C[C@H]1[C@H](F)C[C@@H](C(=O)NCc2cc(-c3cc(C(F)(F)F)nn3C)ncc2F)N1S(=O)(=O)c1ccc(F)cc1` [Example 128, (2S,4R,5S)-4-fluoro-N-[[5-fluoro-2-[2-methyl-5-(trifluoromethyl)pyrazol-3-yl]-4-pyridyl]methyl]-1-(4-fluorophenyl)sulfonyl-5-methyl-pyrrolidine-2-carboxamide], with 18.2 nM; and `C[C@H]1[C@H](F)C[C@@H](C(=O)NCc2cc(-c3cnc(C(F)(F)F)nc3)ncc2F)N1S(=O)(=O)c1cc2ccccc2o1` [Example 95, (2S,4R,5S)-1-(benzofuran-2-ylsulfonyl)-4-fluoro-N-[[5-fluoro-2-[2-(trifluoromethyl)pyrimidin-5-yl]-4-pyridyl]methyl]-5-methyl-pyrrolidine-2-carboxamide], with 1.49 nM. Same read-out and setting: the value for `C[C@H]1[C@H](F)C[C@@H](C(=O)NCc2cc(-c3cnc(C(F)(F)F)s3)ncc2F)N1S(=O)(=O)c1ccc(F)cc1` [Example 93, (2S,4R,5S)-4-fluoro-1-(4-fluorophenyl)sulfonyl-N-[[5-fluoro-2-[2-(trifluoromethyl)thiazol-5-yl]-4-pyridyl]methyl]-5-methyl-pyrrolidine-2-carboxamide] was 5.38 nM. Consider `C[C@H]1[C@H](C#N)C[C@@H](C(=O)NCc2cc(-c3cnc(C(F)(F)F)nc3)ccc2F)N1S(=O)(=O)c1ccc(F)cc1` [Example 2, (2S,4R,5S)-4-cyano-N-([2-fluoro-5-[2-(trifluoromethyl)pyrimidin-5-yl]phenyl]methyl)-1-[(4-fluorobenzene)sulfonyl]-5-methylpyrrolidine-2-carboxamide], for which the IC50 under setting [1] was determined as 7.46 nM. As for `O=C(NCc1cc(-c2cnc(C(F)(F)F)nc2)c(Cl)cn1)[C@@H]1C[C@@H](F)CN1S(=O)(=O)c1ccc(F)cc1` [(2S,4R)-N-[[5-chloro-4-[2-(trifluoromethyl)pyrimidin-5-yl]-2-pyridyl]methyl]-4-fluoro-1-(4-fluorophenyl)sulfonyl-pyrrolidine-2-carboxamide, reference compound], the IC50 (Table 1, with vs without substituent at R2/R3) stood at 42.2 nM. With `C[C@H]1[C@H](F)C[C@@H](C(=O)NCc2cc(-c3cnc(C(F)(F)F)nc3)ncc2F)N1S(=O)(=O)c1cc2cc(F)ccc2o1` [Example 154, (2S,4R,5S)-4-fluoro-1-(5-fluorobenzofuran-2-yl)sulfonyl-N-[[5-fluoro-2-[2-(trifluoromethyl)pyrimidin-5-yl]-4-pyridyl]methyl]-5-methyl-pyrrolidine-2-carboxamide], under setting [1], the concentration for half-maximal inhibition (IC50) was 0.89 nM. With `C[C@H]1[C@H](F)C[C@@H](C(=O)NCc2cc(C3CCN(CC(F)(F)C(F)(F)F)CC3)ncc2F)N1S(=O)(=O)c1ccc(F)cc1` [Example 94, (2S,4R,5S)-4-fluoro-N-[[5-fluoro-2-[1-(2,2,3,3,3-pentafluoropropyl)-4-piperidyl]-4-pyridyl]methyl]-1-(4-fluorophenyl)sulfonyl-5-methyl-pyrrolidine-2-carboxamide], the IC50 under setting [1] turned out to be 5.52 nM. Consider `C[C@H]1[C@H](F)C[C@@H](C(=O)NCc2cn([C@H]3CC[C@H](C(F)(F)F)CC3)nc2C(F)(F)F)N1S(=O)(=O)c1ccc(F)cc1` [Example 50, (2S,4R,5S)-4-fluoro-1-(4-fluorophenyl)sulfonyl-5-methyl-N-[[3-(trifluoromethyl)-1-[4-(trifluoromethyl)cyclohexyl]pyrazol-4-yl]methyl]pyrrolidine-2-carboxamide], for which the IC50 under setting [1] is 50.5 nM. `C[C@H]1[C@H](F)C[C@@H](C(=O)NCc2cc(-c3cnc(C(F)(F)F)nc3)ncc2F)N1S(=O)(=O)c1ccncc1` [Example 39, (2S,4R,5S)-4-fluoro-N-((5-fluoro-2-(2-(trifluoromethyl)pyrimidin-5-yl)pyridin-4-yl)methyl)-5-methyl-1-(pyridin-4-ylsulfonyl)pyrrolidine-2-carboxamide]: the half-inhibitory concentration (IC50) under setting [1] came to 630 nM.

On to `O=C(NCc1ccnc(-c2cnc(C(F)(F)F)nc2)c1)[C@@H]1C[C@@H]2C[C@@H]2N1S(=O)(=O)c1ccc(F)cc1` [Example 13, (1S,3S,5S)-2-(4-fluorophenyl)sulfonyl-N-[[2-[2-(trifluoromethyl)pyrimidin-5-yl]-4-pyridyl]methyl]-2-azabicyclo[3.1.0]hexane-3-carboxamide], for which, under setting [1], the IC50 was 23 nM. Take `C[C@H]1[C@H](F)C[C@@H](C(=O)NCc2cn(-c3cnc(C(F)(F)F)nc3)nc2Cl)N1S(=O)(=O)c1ccc(F)cc1` [Example 62, (2S,4R,5S)-N-[[3-chloro-1-[2-(trifluoromethyl)pyrimidin-5-yl]pyrazol-4-yl]methyl]-4-fluoro-1-(4-fluorophenyl)sulfonyl-5-methyl-pyrrolidine-2-carboxamide]: under setting [1], the IC50 came to 58.2 nM. For `C[C@H]1[C@H](F)C[C@@H](C(=O)NCc2cc(C(F)(F)F)nc(C3CC3)c2F)N1S(=O)(=O)c1ccc(F)cc1` [Example 123, (2S,4R,5S)-N-[[2-cyclopropyl-3-fluoro-6-(trifluoromethyl)-4-pyridyl]methyl]-4-fluoro-1-(4-fluorophenyl)sulfonyl-5-methyl-pyrrolidine-2-carboxamide], the concentration for half-maximal inhibition (IC50) under setting [1] turned out to be 10.8 nM. The same measure, in the same setting: then `COc1nn(-c2cnc(C(F)(F)F)nc2)cc1CNC(=O)[C@@H]1C[C@@H](F)[C@H](C)N1S(=O)(=O)c1ccc(F)cc1` [Example 6, (2S,4R,5S)-4-fluoro-1-(4-fluorophenyl)sulfonyl-N-[[3-methoxy-1-[2-(trifluoromethyl)pyrimidin-5-yl]pyrazol-4-yl]methyl]-5-methyl-pyrrolidine-2-carboxamide], with 9.62 nM; and `C[C@H]1[C@H](F)C[C@@H](C(=O)NCc2ccnc(-c3cnc(C(F)(F)F)nc3)c2)N1S(=O)(=O)c1ccc(F)cc1` [Example 38, (4R,5S)-4-fluoro-1-[(4-fluorobenzene)sulfonyl]-5-methyl-N-([2-[2-(trifluoromethyl)pyrimidin-5-yl]pyridin-4-yl]methyl)pyrrolidine-2-carboxamide], with 69.4 nM.

With `C[C@H]1[C@H](F)C[C@@H](C(=O)NCc2cc(-c3cnc(C(F)(F)F)nc3)ncc2CC(F)(F)F)N1S(=O)(=O)c1ccc(F)cc1` [Example 136, (2S,4R,5S)-4-fluoro-1-(4-fluorophenyl)sulfonyl-5-methyl-N-[[5-(2,2,2-trifluoroethyl)-2-[2-(trifluoromethyl)pyrimidin-5-yl]-4-pyridyl]methyl]pyrrolidine-2-carboxamide], under setting [1], the IC50 stood at 8.11 nM.

Consider `C[C@H]1[C@H](F)C[C@@H](C(=O)NCc2cc(N3CC(OC(F)(F)F)C3)nc(C3CC3)n2)N1S(=O)(=O)c1ccc(F)cc1` [Example 81, (2S,4R,5S)-N-[[2-cyclopropyl-6-[3-(trifluoromethoxy)azetidin-1-yl]pyrimidin-4-yl]methyl]-4-fluoro-1-(4-fluorophenyl)sulfonyl-5-methyl-pyrrolidine-2-carboxamide], for which the IC50 under setting [1] came out at 55.3 nM. With `C[C@H]1[C@H](F)C[C@@H](C(=O)NCc2cc(-c3ccc(C(F)(F)F)nc3)c(F)cn2)N1S(=O)(=O)c1ccc(F)cc1` [Example 36, (2S,4R,5S)-4-fluoro-N-([5-fluoro-4-[6-(trifluoromethyl)pyridin-3-yl]pyridin-2-yl]methyl)-1-[(4-fluorobenzene)sulfonyl]-5-methylpyrrolidine-2-carboxamide], the IC50 under setting [1] is 26 nM. As to `C[C@H]1CC[C@@H](C(=O)NCc2cc(-c3cnc(C(F)(F)F)nc3)ncn2)N1S(=O)(=O)c1ccc(F)cc1` [Example 19, (2S,5S)-1-(4-fluorophenyl)sulfonyl-5-methyl-N-[[6-[2-(trifluoromethyl)pyrimidin-5-yl]pyrimidin-4-yl]methyl]pyrrolidine-2-carboxamide], under setting [1], the IC50 came to 5.22 nM.
